US20250154141A1 (University of Florida Research Foundation, Incorporated, priority 2021, published 2025)

How the values were obtained:
[1] = test system: MOLT-4; assay: Cell viability assay (MTS) in MOLT-4 cells; assay type: cell-based; settings: Homo sapiens, MOLT-4; Table 2; 48 hr; MTS; read-out: Anti-Cancer Activity IC50 (48 hr) MOLT-4
Protocol: (§1) Acute lymphoblastic leukemia cells (MOLT-4 and RS4; 11) were incubated with increasing concentrations of Bcl-xL degraders for 48 h. Cell viability was measured by tetrazolium-based MTS assay.

[2] = test system: RS4; 11; assay: Cell viability assay (MTS) in RS4; 11 cells; assay type: cell-based; settings: Homo sapiens, RS4-11; Table 2; 48 hr; MTS; read-out: Anti-Cancer Activity IC50 (48 hr) RS4; 11
Protocol: as §1

Cc1ncsc1-c1ccc([C@H](C)NC(=O)[C@@H]2C[C@@H](O)CN2C(=O)[C@@H](NC(=O)CC(=O)N2CCC(S(=O)(=O)N3CCN(C[C@]4(C)CCC(c5ccc(Cl)cc5)=C(CN5CCN(c6ccc(C(=O)NS(=O)(=O)c7ccc(N[C@H](CCN8CCCOCC8)CSc8ccccc8)c(S(=O)(=O)C(F)(F)F)c7)cc6)CC5)C4)CC3)CC2)C(C)(C)C)cc1 [Compound 100]
IC50 [1]: 100 to 500 nM
IC50 [2]: 20 to 100 nM

Cc1ncsc1-c1ccc([C@H](C)NC(=O)[C@@H]2C[C@@H](O)CN2C(=O)[C@@H](NC(=O)CCCCC(=O)N2CCC(C3CCN(CC4(C)CCC(c5ccc(Cl)cc5)=C(CN5CCN(c6ccc(C(=O)NS(=O)(=O)c7ccc(N[C@H](CCN8C[C@H]9C[C@@H]8CO9)CSc8ccccc8)c([N+](=O)[O-])c7)cc6)CC5)C4)CC3)CC2)C(C)(C)C)cc1 (some centres unmarked) [Compound 54]
IC50 [1]: < 20 nM
IC50 [2]: < 20 nM

Cc1ncsc1-c1ccc([C@H](C)NC(=O)[C@@H]2C[C@@H](O)CN2C(=O)[C@@H](NC(=O)CNC(=O)c2ccc(N3CCN(CC4(C)CCC(c5ccc(Cl)cc5)=C(CN5CCN(c6ccc(C(=O)NS(=O)(=O)c7ccc(N[C@H](CCN8CCOCC8)CSc8ccccc8)c(S(=O)(=O)C(F)(F)F)c7)cc6)CC5)C4)CC3)nc2)C(C)(C)C)cc1 (some centres unmarked) [Compound 1]
IC50 [1]: 20 to 100 nM
IC50 [2]: 100 to 500 nM

Cc1ncsc1-c1ccc([C@H](C)NC(=O)[C@@H]2C[C@@H](O)CN2C(=O)[C@@H](NC(=O)CCCNC(=O)c2ccc(N3CCN(CC4(C)CCC(c5ccc(Cl)cc5)=C(CN5CCN(c6ccc(C(=O)NS(=O)(=O)c7ccc(N[C@H](CCN8CCOCC8)CSc8ccccc8)c(S(=O)(=O)C(F)(F)F)c7)cc6)CC5)C4)CC3)cc2)C(C)(C)C)cc1 (stereo partly drawn) [Compound 11, (2S,4R)-1-((2S)-2-(4-(4-(4-((4′-chloro-4-methyl-6-((4-(4-(((4-(((R)-4-morpholino-1-(phenylthio)butan-2-yl)amino)-3-((trifluoromethyl)sulfonyl)phenyl)sulfonyl)carbamoyl)phenyl)piperazin-1-yl)methyl)-2,3,4,5-tetrahydro-[1,1′-biphenyl]-4-yl)methyl)piperazin-1-yl)benzamido)butanamido)-3,3-dimethylbutanoyl)-4-hydroxy-N—((S)-1-(4-(4-methylthiazol-5-yl)phenyl)ethyl)pyrrolidine-2-carboxamide]
IC50 [1]: 20 to 100 nM
IC50 [2]: 20 to 100 nM

Cc1ncsc1-c1ccc([C@H](C)NC(=O)[C@@H]2C[C@@H](O)CN2C(=O)[C@@H](NC(=O)CCCCCCC(=O)N2CCN(C[C@]3(C)CCC(c4ccc(Cl)cc4)=C(CN4CCN(c5ccc(C(=O)NS(=O)(=O)c6ccc(N[C@H](CCN7CC8CCC7C8)CSc7ccccc7)c(S(=O)(=O)C(F)(F)F)c6)cc5)CC4)C3)CC2)C(C)(C)C)cc1 (some centres unmarked) [Compound 67]
IC50 [1]: < 20 nM
IC50 [2]: < 20 nM

Cc1ncsc1-c1ccc([C@H](C)NC(=O)[C@@H]2C[C@@H](O)CN2C(=O)[C@@H](NC(=O)CCCCCCC(=O)N2CCN(CC3(C)CCC(c4ccc(Cl)cc4)=C(CN4CCN(c5ccc(C(=O)NS(=O)(=O)c6ccc(N[C@H](CCN(CCO)C7CC7)CSc7ccccc7)c([N+](=O)[O-])c6)cc5)CC4)C3)CC2)C(C)(C)C)cc1 (stereo partly drawn) [Compound 44, (2S,4R)-1-((2S)-2-(8-(4-((4′-chloro-6-((4-(4-(((4-(((R)-4-(cyclopropyl(2-hydroxyethyl)amino)-1-(phenylthio)butan-2-yl)amino)-3-nitrophenyl)sulfonyl)carbamoyl)phenyl)piperazin-1-yl)methyl)-4-methyl-2,3,4,5-tetrahydro-[1,1′-biphenyl]-4-yl)methyl)piperazin-1-yl)-8-oxooctanamido)-3,3-dimethylbutanoyl)-4-hydroxy-N—((S)-1-(4-(4-methylthiazol-5-yl)phenyl)ethyl)pyrrolidine-2-carboxamide]
IC50 [1]: 100 to 500 nM
IC50 [2]: 20 to 100 nM

Cc1ncsc1-c1ccc([C@H](C)NC(=O)[C@@H]2C[C@@H](O)CN2C(=O)[C@@H](NC(=O)CN2CCC(CC(=O)N3CCN(C[C@]4(C)CCC(c5ccc(Cl)cc5)=C(CN5CCN(c6ccc(C(=O)NS(=O)(=O)c7ccc(N[C@H](CCN8CCCOCC8)CSc8ccccc8)c(S(=O)(=O)C(F)(F)F)c7)cc6)CC5)C4)CC3)CC2)C(C)(C)C)cc1 [Compound 76]
IC50 [1]: < 20 nM
IC50 [2]: < 20 nM
